# In ChEMBL document CHEMBL3885861, “Open TG-GATES”:
# Species: Rattus norvegicus
# Test: Open TG-GATES - Regimen: Single
# Format: toxicity, organism-based, Sprague-Dawley
# Design: regimen Single, gender Male, age 6 weeks
# Conditions: in vivo, iv, 10 mg/kg, route intravenous injection, dose level High; for KIDNEY_L / KIDNEY_R / KIDNEY_TOTAL: tissue Kidney; for LIVER: tissue Liver; for ALP / ALT / AST / CRE / DBIL / GLC / K / LDH / Na / RALB / TBIL / TC / TG / TP / gamma-GTP: tissue Plasma
smiles,measurement,setting,value
COc1cccc2c1C(=O)c1c(O)c3c(c(O)c1C2=O)C[C@@](O)(C(=O)CO)C[C@@H]3O[C@H]1C[C@H](N)[C@H](O)[C@H](C)O1 [DOXORUBICIN],Eos,"3 h, tissue Blood",0.6%
same,Fbg,"3 h, tissue Blood",275.8 mg/dL
same,Ht,"3 h, tissue Blood",37.5%
same,Lym,"3 h, tissue Blood",60.4%
same,MCH,"3 h, tissue Blood",21.8 pg
same,MCHC,"3 h, tissue Blood",34.9%
same,MCV,"3 h, tissue Blood",62.3 fL
same,Mono,"3 h, tissue Blood",8.8%
same,Neu,"3 h, tissue Blood",27.4%
same,PT,"3 h, tissue Blood",16.5 s
same,Plat,"3 h, tissue Blood",121.7 x10_4/uL
same,RBC,"3 h, tissue Blood",603 x10_4/ul
same,Ret,"3 h, tissue Blood",6.2%
same,KIDNEY_L,3 h,0.9 g
same,KIDNEY_R,3 h,0.9 g
same,KIDNEY_TOTAL,3 h,1.9 g
same,LIVER,3 h,9.3 g
same,ALP,3 h,1462.4 IU/L
same,ALT,3 h,43 IU/L
same,AST,3 h,86.6 IU/L
same,CRE,3 h,0.1 mg/dL
same,DBIL,3 h,0 mg/dL
same,GLC,3 h,171.4 mg/dL
same,K,3 h,4.6 meq/L
same,LDH,3 h,187.2 IU/L
same,Na,3 h,141.4 meq/L
same,RALB,3 h,2.9 g/dL
same,TBIL,3 h,0.008 mg/dL
same,TC,3 h,75.4 mg/dL
same,TG,3 h,140 mg/dL
same,TP,3 h,5.1 g/dL
same,gamma-GTP,3 h,1.6 IU/L
same,TERMINAL_BW,6 h,205.6 g
same,Bas,"6 h, tissue Blood",0%
same,Eos,"6 h, tissue Blood",0.2%
same,Fbg,"6 h, tissue Blood",275.8 mg/dL
same,Ht,"6 h, tissue Blood",38%
same,Lym,"6 h, tissue Blood",64%
same,MCH,"6 h, tissue Blood",21.6 pg
same,MCHC,"6 h, tissue Blood",34%
same,MCV,"6 h, tissue Blood",63.4 fL
same,Mono,"6 h, tissue Blood",6.4%
same,Neu,"6 h, tissue Blood",26.4%
same,PT,"6 h, tissue Blood",16.2 s
same,Plat,"6 h, tissue Blood",118.6 x10_4/uL
same,RBC,"6 h, tissue Blood",599 x10_4/ul
same,Ret,"6 h, tissue Blood",6.9%
same,KIDNEY_L,6 h,0.9 g
same,KIDNEY_R,6 h,0.9 g
same,KIDNEY_TOTAL,6 h,1.8 g
same,LIVER,6 h,8.7 g
same,ALP,6 h,1468.4 IU/L
same,AST,6 h,86.4 IU/L
same,CRE,6 h,0.2 mg/dL
same,DBIL,6 h,0 mg/dL
same,GLC,6 h,190.8 mg/dL
same,K,6 h,4 meq/L
same,LDH,6 h,180 IU/L
same,Na,6 h,141 meq/L
same,RALB,6 h,2.9 g/dL
same,TBIL,6 h,0.036 mg/dL
same,TC,6 h,69.4 mg/dL
same,TG,6 h,54.4 mg/dL
same,TP,6 h,5.1 g/dL
same,gamma-GTP,6 h,1.6 IU/L
same,TERMINAL_BW,9 h,206.9 g
same,Bas,"9 h, tissue Blood",0%
same,Eos,"9 h, tissue Blood",0.4%
same,Fbg,"9 h, tissue Blood",279.2 mg/dL
same,Hb,"9 h, tissue Blood",13 g/dL
same,Ht,"9 h, tissue Blood",38.2%
same,Lym,"9 h, tissue Blood",56.2%
same,MCH,"9 h, tissue Blood",21.3 pg
same,MCHC,"9 h, tissue Blood",34.1%
same,MCV,"9 h, tissue Blood",62.5 fL
same,Mono,"9 h, tissue Blood",5.6%
same,Neu,"9 h, tissue Blood",35.4%
same,PT,"9 h, tissue Blood",15.9 s
same,Plat,"9 h, tissue Blood",118.9 x10_4/uL
same,RBC,"9 h, tissue Blood",611.6 x10_4/ul
same,Ret,"9 h, tissue Blood",6.1%
same,KIDNEY_L,9 h,0.9 g
same,KIDNEY_R,9 h,0.9 g
same,KIDNEY_TOTAL,9 h,1.9 g
same,LIVER,9 h,8.2 g
same,ALP,9 h,1273.6 IU/L
same,AST,9 h,84.2 IU/L
same,CRE,9 h,0.1 mg/dL
same,DBIL,9 h,0.002 mg/dL
same,GLC,9 h,186.2 mg/dL
same,K,9 h,4.1 meq/L
same,Na,9 h,139.6 meq/L
same,RALB,9 h,3 g/dL
same,TBIL,9 h,0.036 mg/dL
same,TC,9 h,68.4 mg/dL
same,TG,9 h,56.8 mg/dL
same,TP,9 h,5.2 g/dL
same,gamma-GTP,9 h,1.2 IU/L
same,TERMINAL_BW,24 h,206.3 g
same,Bas,"24 h, tissue Blood",0%
same,Eos,"24 h, tissue Blood",0.8%
same,Fbg,"24 h, tissue Blood",323 mg/dL
same,Ht,"24 h, tissue Blood",37.9%
same,Lym,"24 h, tissue Blood",74.2%
same,MCH,"24 h, tissue Blood",22.1 pg
same,MCHC,"24 h, tissue Blood",35.9%
same,MCV,"24 h, tissue Blood",61.6 fL
same,Mono,"24 h, tissue Blood",3%
same,Neu,"24 h, tissue Blood",20.8%
same,PT,"24 h, tissue Blood",15.9 s
same,Plat,"24 h, tissue Blood",131.1 x10_4/uL
same,RBC,"24 h, tissue Blood",615.6 x10_4/ul
same,Ret,"24 h, tissue Blood",3.2%
same,KIDNEY_L,24 h,0.9 g
same,KIDNEY_R,24 h,0.9 g
same,KIDNEY_TOTAL,24 h,1.8 g
same,LIVER,24 h,9.1 g
same,ALP,24 h,1298.4 IU/L
same,ALT,24 h,28 IU/L
same,CRE,24 h,0.2 mg/dL
same,DBIL,24 h,0 mg/dL
same,GLC,24 h,208.8 mg/dL
same,K,24 h,4.9 meq/L
same,LDH,24 h,129.2 IU/L
same,Na,24 h,141.2 meq/L
same,RALB,24 h,2.9 g/dL
same,TBIL,24 h,0.014 mg/dL
same,TC,24 h,82.4 mg/dL
same,TG,24 h,60 mg/dL
same,TP,24 h,5.2 g/dL
same,gamma-GTP,24 h,1.4 IU/L
